Data from patent US10829520B2, “Beta-hairpin peptidomimetics” (POLYPHOR AG, priority 2015, dated 2020).
Where a SMILES comes first, the peptide text is derived from it. Bridges are numbered along the chain shown (N, C = ends). [ ]: non-standard residue; d: D form. The star is where a group is joined. NαAmidinoTrp = N=C(N)N[C@@H](Cc1c[nH]c2ccccc12)C(=O)*; Pen = CC(C)(S)[C@H](N)C(=O)O; Tle = CC(C)(C)[C@H](N)C(=O)O; dDab = NCC[C@@H](N)C(=O)O; Orn = NCCC[C@H](N)C(=O)O; Dab = NCC[C@H](N)C(=O)O; Sar = CNCC(=O)O

How the values were obtained:
Type in all cases: cell-based
[1] = test system: Escherichia coli ATCC 25922; conditions: ATCC 25922
Procedure, shortened: (§1)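 Peptide stocks (1 mg/mL, water) were diluted two-fold into MH-II broth with 0.002% P-80 and mixed with approx. 10^6 CFU/mL bacteria. Plates were read visually after 18-20 hours at 35° C, with MIC expressed in μg/mL per CLSI.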

[2] = test system: Acinetobacter baumannii 872842; conditions: 872842
[3] = test system: Acinetobacter baumannii DSM 30008; conditions: DSM 30008
Procedure, shortened: as §1

[4] = test system: Klebsiella pneumoniae 968733; conditions: 968733
[5] = test system: Klebsiella pneumoniae SSI #3010; conditions: SSI #3010
Procedure, shortened: as §1

[6] = test system: Pseudomonas aeruginosa ATCC 27853; conditions: ATCC 27853
Procedure, shortened: as §1

[7] = test system: Escherichia coli 926415; conditions: 926415
[8] = test system: human red blood cells (hRBC); experiment: Hemolysis of human red blood cells; conditions: red cells of human, 1 h
Procedure, shortened: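 Each peptide was tested at a single concentration, 100 μg/mL. Erythrocytes (20% v/v) were incubated 1 h at 37° C. under shaking at 300 rpm, centrifuged, and released hemoglobin measured at OD540. Controls were PBS containing 0.001% acetic acid (0%) and Triton X-100 (100%).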

Compound: CC(C)C[C@@H]1NC(=O)[C@@H](CC(C)C)NC(=O)[C@H](CCN)NC(=O)[C@@H](NC(=O)[C@H](CCN)NC(=O)[C@@H](NC(=O)[C@H](CCN)NC(=O)CNC(=O)[C@H](CCN)NC(=O)[C@H](Cc2ccc(O)cc2)NC(=O)[C@H]2NC(=O)[C@H](CC(C)C)NC(=O)[C@@H]3CCCN3C(=O)[C@H]3CCCN3C(=O)[C@H](CO)NC(=O)[C@@H](NC(=O)[C@@H](NC(=O)[C@H](CCN)NC(=O)[C@@H](N)Cc3c[nH]c4ccccc34)C(C)C)CSSC2(C)C)[C@@H](C)O)CCNC(=O)[C@H]([C@@H](C)O)NC(=O)[C@H](CCN)NC(=O)[C@H](CCN)NC1=O [Ex. 162] (H-W[Dab]VCS[dP]PL[Pen]Y[Dab]G[Dab]T[Dab][Dab][Dab][dL]L[Dab][Dab]T; disulfide 4-9; lactam 16-C)
- Escherichia coli ATCC 25922 MIC [1]: 0.0625 µg/mL
- Acinetobacter baumannii 872842 MIC [2]: 0.125 µg/mL
- Acinetobacter baumannii DSM 30008 MIC [3]: 0.5 µg/mL
- Klebsiella pneumoniae 968733 MIC [4]: 2 µg/mL
- Klebsiella pneumoniae SSI #3010 MIC [5]: 0.25 µg/mL
- Pseudomonas aeruginosa ATCC 27853 MIC [6]: 1 µg/mL
- Escherichia coli 926415 MIC [7]: 0.25 µg/mL
- Hemolysis at 100 μg/mL ([8]; 100 μg/mL): <1%

Compound: CC(=O)N[C@@H](Cc1c[nH]c2ccccc12)C(=O)N[C@@H](CCN)C(=O)N[C@H](C(=O)N[C@H]1CC(=O)NCC[C@@H](C(=O)N[C@@H](Cc2ccc(O)cc2)C(=O)N[C@@H](CCN)C(=O)N[C@H](C(=O)N[C@@H](CCN)C(=O)N[C@@H](CCN)C(=O)N[C@@H](CCN)C(=O)N[C@H]2CCNC(=O)[C@H]([C@@H](C)O)NC(=O)[C@H](CCN)NC(=O)[C@H](CCN)NC(=O)[C@H](CC(C)C)NC(=O)[C@@H](Cc3ccccc3)NC(=O)[C@H](CCN)NC2=O)[C@@H](C)O)NC(=O)[C@H](C(C)C)NC(=O)[C@@H]2CCCN2C(=O)[C@H]2CCCN2C(=O)[C@H](Cc2c[nH]cn2)NC1=O)C(C)(C)C [Ex. 167] (Ac-W[Dab][Tle]DH[dP]PV[Dab]Y[Dab]T[Dab][Dab][Dab][Dab][Dab][dF]L[Dab][Dab]T; lactam 4-9, 16-C)
- Escherichia coli ATCC 25922 MIC [1]: 0.25 µg/mL
- Acinetobacter baumannii 872842 MIC [2]: 1 µg/mL
- Acinetobacter baumannii DSM 30008 MIC [3]: 0.5 µg/mL
- Klebsiella pneumoniae 968733 MIC [4]: 2 µg/mL
- Klebsiella pneumoniae SSI #3010 MIC [5]: 0.25 µg/mL
- Pseudomonas aeruginosa ATCC 27853 MIC [6]: 0.125 µg/mL
- Escherichia coli 926415 MIC [7]: 1 µg/mL
- Hemolysis at 100 μg/mL [8]; 100: <1%

Compound: CC(=O)N[C@@H](Cc1c[nH]c2ccccc12)C(=O)N[C@@H](CCN)C(=O)N[C@H](C(=O)N[C@H]1CC(=O)NCC[C@@H](C(=O)N[C@@H](Cc2ccc(O)cc2)C(=O)N[C@@H](CCN)C(=O)N[C@H](C(=O)N[C@@H](CCN)C(=O)N[C@@H](CCN)C(=O)N[C@@H](CCN)C(=O)N[C@H]2CCNC(=O)[C@H]([C@@H](C)O)NC(=O)[C@H](CCN)NC(=O)[C@H](CCN)NC(=O)[C@H](CC(C)C)NC(=O)[C@@H](CC(C)C)NC(=O)[C@H](CCN)NC2=O)[C@@H](C)O)NC(=O)[C@H](C(C)C)NC(=O)[C@@H]2CCCN2C(=O)[C@H]2CCCN2C(=O)[C@H](Cc2c[nH]cn2)NC1=O)C(C)(C)C [Ex. 168] (Ac-W[Dab][Tle]DH[dP]PV[Dab]Y[Dab]T[Dab][Dab][Dab][Dab][Dab][dL]L[Dab][Dab]T; lactam 4-9, 16-C)
- Escherichia coli ATCC 25922 MIC [1]: 0.5 µg/mL
- Acinetobacter baumannii 872842 MIC [2]: 1 µg/mL
- Acinetobacter baumannii DSM 30008 MIC [3]: 2 µg/mL
- Klebsiella pneumoniae 968733 MIC [4]: 4 µg/mL
- Klebsiella pneumoniae SSI #3010 MIC [5]: 1 µg/mL
- Pseudomonas aeruginosa ATCC 27853 MIC [6]: 0.25 µg/mL
- Escherichia coli 926415 MIC [7]: 0.5 µg/mL
- Hemolysis at 100 μg/mL [8]; 100: 3%

Compound: CC(C)C[C@@H]1NC(=O)[C@H](CCCNC(=N)N)NC(=O)[C@@H](CCN)NC(=O)[C@H](C(C)C)NC(=O)[C@@H](NC(=O)[C@H](Cc2ccc(O)cc2)NC(=O)[C@H](CO)NC(=O)[C@@H](N)Cc2c[nH]c3ccccc23)CSSC[C@@H](C(=O)N[C@@H](Cc2ccc(O)cc2)C(=O)N[C@@H](CC(N)=O)C(=O)N(C)CC(=O)N[C@@H](CCN)C(=O)N[C@H](C(=O)N[C@@H](CCN)C(=O)N[C@H]2CCNC(=O)[C@H]([C@@H](C)O)NC(=O)[C@H](CCN)NC(=O)[C@H](CCN)NC(=O)[C@H](CC(C)C)NC(=O)[C@@H](CC(C)C)NC(=O)[C@H](CCN)NC2=O)[C@@H](C)O)NC1=O [Ex. 169] (H-WSYCV[dDab]RLCYN[Sar][Dab]T[Dab][Dab][Dab][dL]L[Dab][Dab]T; disulfide 4-9; lactam 16-C)
- Escherichia coli ATCC 25922 MIC [1]: 0.5 µg/mL
- Acinetobacter baumannii 872842 MIC [2]: 1 µg/mL
- Acinetobacter baumannii DSM 30008 MIC [3]: 1 µg/mL
- Klebsiella pneumoniae 968733 MIC [4]: 2 µg/mL
- Klebsiella pneumoniae SSI #3010 MIC [5]: 0.25 µg/mL
- Pseudomonas aeruginosa ATCC 27853 MIC [6]: 1 µg/mL
- Escherichia coli 926415 MIC [7]: 0.5 µg/mL
- Hemolysis at 100 μg/mL ([8]; 100 μg/mL): 1%

Compound: CC[C@H](C)[C@@H]1NC(=O)[C@@H]2CCCN2C(=O)[C@H]2CCCN2C(=O)[C@H](Cc2ccc(O)cc2)NC(=O)[C@@H](NC(=O)[C@@H](NC(=O)[C@H](CCN)NC(=O)[C@@H](N)CC(C)C)C(C)C)CSSC[C@@H](C(=O)N[C@@H](Cc2ccc(O)cc2)C(=O)N[C@@H](CCN)C(=O)N(C)CC(=O)N[C@@H](CCN)C(=O)N[C@H](C(=O)N[C@@H](CCN)C(=O)N[C@H]2CCNC(=O)[C@H]([C@@H](C)O)NC(=O)[C@H](CCN)NC(=O)[C@H](CCN)NC(=O)[C@H](CC(C)C)NC(=O)[C@@H](CC(C)C)NC(=O)[C@H](CCN)NC2=O)[C@@H](C)O)NC1=O [Ex. 170] (H-L[Dab]VCY[dP]PICY[Dab][Sar][Dab]T[Dab][Dab][Dab][dL]L[Dab][Dab]T; disulfide 4-9; lactam 16-C)
- Escherichia coli ATCC 25922 MIC [1]: 0.5 µg/mL
- Acinetobacter baumannii 872842 MIC [2]: 0.125 µg/mL
- Acinetobacter baumannii DSM 30008 MIC [3]: 1 µg/mL
- Klebsiella pneumoniae 968733 MIC [4]: 0.5 µg/mL
- Klebsiella pneumoniae SSI #3010 MIC [5]: 1 µg/mL
- Pseudomonas aeruginosa ATCC 27853 MIC [6]: 0.5 µg/mL
- Escherichia coli 926415 MIC [7]: 0.25 µg/mL
- Hemolysis at 100 μg/mL ([8]; 100 μg/mL): 1%

Compound: CC(=O)N[C@@H](CC(C)C)C(=O)N[C@@H](CO)C(=O)N[C@H](C(=O)N[C@H]1CSSC[C@@H](C(=O)N[C@@H](Cc2ccc(O)cc2)C(=O)N[C@@H](CC(N)=O)C(=O)N[C@@H](CCCN)C(=O)N[C@H](CCN)C(=O)N[C@@H](CCN)C(=O)N[C@@H](CCN)C(=O)N[C@H]2CCNC(=O)[C@H]([C@@H](C)O)NC(=O)[C@H](CCN)NC(=O)[C@H](CCN)NC(=O)[C@H](CC(C)C)NC(=O)[C@@H](Cc3ccccc3)NC(=O)[C@H](CCN)NC2=O)NC(=O)[C@H](CC(C)C)NC(=O)[C@H](CCCNC(=N)N)NC(=O)[C@@H](CCN)NC(=O)[C@H](C(C)C)NC1=O)C(C)(C)C [Ex. 171] (Ac-LS[Tle]CV[dDab]RLCYN[Orn][dDab][Dab][Dab][Dab][Dab][dF]L[Dab][Dab]T; disulfide 4-9; lactam 16-C)
- Escherichia coli ATCC 25922 MIC [1]: 1 µg/mL
- Acinetobacter baumannii 872842 MIC [2]: 2 µg/mL
- Acinetobacter baumannii DSM 30008 MIC [3]: 2 µg/mL
- Klebsiella pneumoniae 968733 MIC [4]: 4 µg/mL
- Klebsiella pneumoniae SSI #3010 MIC [5]: 1 µg/mL
- Pseudomonas aeruginosa ATCC 27853 MIC [6]: 0.5 µg/mL
- Escherichia coli 926415 MIC [7]: 2 µg/mL
- Hemolysis at 100 μg/mL ([8]; 100 μg/mL): 2%

Compound: CC(C)C[C@@H]1NC(=O)[C@@H](CC(C)C)NC(=O)[C@H](CCN)NC(=O)[C@@H](NC(=O)[C@H](CCN)NC(=O)[C@H](CCN)NC(=O)[C@H](CCN)NC(=O)CNC(=O)[C@H](CCN)NC(=O)[C@H](Cc2ccc(O)cc2)NC(=O)[C@@H]2CCNC(=O)C[C@H](NC(=O)[C@@H](NC(=O)[C@H](CCN)NC(=O)[C@H](Cc3c[nH]c4ccccc34)NC(=N)N)C(C)C)C(=O)N[C@@H](Cc3ccc(O)cc3)C(=O)N3CCC[C@@H]3C(=O)N3CCC[C@H]3C(=O)N[C@@H](C(C)C)C(=O)N2)CCNC(=O)[C@H]([C@@H](C)O)NC(=O)[C@H](CCN)NC(=O)[C@H](CCN)NC1=O [Ex. 172] (NαAmidinoTrp-[Dab]VDY[dP]PV[Dab]Y[Dab]G[Dab][Dab][Dab][Dab][Dab][dL]L[Dab][Dab]T; lactam 3-8, 15-C)
- Escherichia coli ATCC 25922 MIC [1]: 0.0625 µg/mL
- Acinetobacter baumannii 872842 MIC [2]: 0.25 µg/mL
- Acinetobacter baumannii DSM 30008 MIC [3]: 0.0625 µg/mL
- Klebsiella pneumoniae 968733 MIC [4]: 0.5 µg/mL
- Klebsiella pneumoniae SSI #3010 MIC [5]: 0.125 µg/mL
- Pseudomonas aeruginosa ATCC 27853 MIC [6]: 0.125 µg/mL
- Escherichia coli 926415 MIC [7]: 0.5 µg/mL
- Hemolysis at 100 μg/mL [8]; 100: 1%
